From patent publication US9889184B2 (priority 2008, dated 2018)

Columns and labels:
[1] = system: Fov hyphae; experiment: Uptake of FITC-labeled dextrans into NaD1-treated hyphae; assay type: cell-based, Fusarium oxysporum f. sp. vasinfectum
Experimental: The uptake of FITC-labeled dextran following NaD1 treatment of fungal hyphae was also studied. Fov hyphae were grown as described above and incubated with NaD1 (final concentration 0.1, 2, 10 or 50 μM) or an equivalent volume of water for 2 h at RT with gentle agitation. Hyphae were washed twice for 10 min with half-strength PDB to remove excess NaD1 before FITC dextrans of either 4 kDa (FD-4, Sigma-Aldrich) or 10 kDa (FD-10, Sigma-Aldrich) were added to a final concentration of 1 μM. Hyphae were incubated for a further 30 min at RT and then washed twice with half strength PDB to remove excess dextrans. Fluorescence microscopy was used to visualize hyphae as described for SYTOX® green. A second assay was performed under the same conditions except the dextrans were added at the same time as NaD1.

[2] = system: Fov infection; settings: transgenic cotton expressing NaD1 vs untransformed parent variety, field trials; cited from earlier work
[3] = system: Fov hyphae; experiment: Uptake of NaD1 into hyphae (immunogold EM, bimane fluorescence, immunoblot); assay type: cell-based, Fusarium oxysporum f. sp. vasinfectum
Experimental: Fov hyphae were grown as described above prior to the addition of NaD1 (10 μM final concentration) to 1 mL of the culture. Samples (100 μL) were collected after 0, 5, 10, 30, 60, 90 and 120 min. Hyphae were collected by centrifugation (10 min, 10,000×g) and the supernatant was stored at −20° C. for analysis. Hyphae were washed (2×10 min) with KCl (0.6 M) to remove any ionically bound protein before they were resuspended in 50 mM CAPS buffer (pH 10.0) containing 10 mM DTT for 20 min. Hyphae were collected by centrifugation and the supernatant, containing cell wall proteins, was collected for analysis. The pellet (containing cells) was resuspended in water and the cells were lysed using glass beads (Sigma, 60 mg) and vortexing (3×10 min). Cellular debris was removed by centrifugation (16,000×g, 10 min) and the supernatant collected for analysis. All samples were then analyzed by SDS-PAGE and immunoblotting.
Fov hyphae were grown for 18 h in half-strength PDB (5 mL) with vigorous shaking at 25° C. from a starting spore suspension of 5×10^4/mL. Hyphae were then treated with 2 μM NaD1 or an equivalent volume of water for 2 h at RT with gentle agitation, and were washed twice in 0.6 M KCl and three times in PBS before fixation in 4% (w/v) paraformaldehyde in PBS for 1 h at 4° C. Hyphae were again washed three times in PBS before dehydration in a standard ethanol series (15 min each, 50%, 70% and 90% ethanol, 3×15 min 100% ethanol). Hyphae were then infiltrated with LR White resin (ProSciTech) for 1 h at RT, followed by 18 h at 4° C., 1 h at RT and 24 h at 60° C. Fresh LR White resin was used at each step. Ultrathin sections were cut and placed on Formvar coated gold grids.
Grids were blocked with PBS containing 8% (w/v) BSA and 1% (v/v) Triton X-100 for 1 h and labeled with α-NaD1 antibodies (2 μg/mL in blocking buffer) for 1 h. Grids were washed in blocking buffer (3×10 min) and labeled with 15 nm gold particle labeled goat α-rabbit IgG antibodies (ProSciTech diluted 1 in 20 for 1 h. Grids were washed again in blocking solution (3×10 min) followed by water (15 min) before being air-dried. A JEOL JEM2010HC x e80 KV transmission electron microscope was used to examine labeled grids. Pictures were taken on Kodak EM film (ProSciTech) and developed in a dark room before scanning on a Hewlett Packard Scanjet 5P scanner.
Hyphae grown for 18 h as described were treated with NaD1-bimane (2 μM) for between 10 min and 6 h. Hyphae were then visualized by fluorescence microscopy using an MWU filter (excitation wavelength of 330-385 nm).

[4] = system: Aspergillus nidulans; experiment: Growth inhibition by NaD1 (microtitre OD595); assay type: cell-based
Text: (§1) Antifungal activity against Fusarium oxysporum f. sp. vasinfectum (Fov, Australian isolate VCG01111 isolated from cotton; from Wayne O'Neill, Farming Systems Institute, DPI, Queensland, Australia), Thielaviopsis basicola (gift from David Nehl, NSW DPI, Narrabri, Australia), Verticillium dahliae (from Helen McFadden, CSIRO Plant Industry, Black Mountain, Australia), Leptosphaeria maculans (from Barbara Howlett, University of Melbourne, Victoria, Australia) and Aspergillus nidulans (from Michael Hynes, University of Melbourne) was assessed essentially as described in Broekaert et al, 1990. Spores were isolated from sporulating cultures growing in either half-strength potato dextrose broth (PDB) (Fov and T. basicola), Czapeck-Dox Broth (V. dahliae) (Difco Laboratories) or 10% (v/v) clarified V8 medium (L. maculans and A. nidulans) by filtration through sterile muslin. Spore concentrations were determined using a hemocytometer and adjusted to 5×10^4 spores/mL in the appropriate growth medium. Spore suspensions (80 μL) were added to the wells of sterile 96-well flat-bottomed microtitre plates along with 20 μL of filter-sterilized (0.22 μm syringe filter; Millipore) NaD1, or water to give final protein concentrations of 0-10 μM. The plates were shaken briefly and placed in the dark at 25° C. without shaking until the optical density at 595 nm of the water control reached approximately 0.2 (24-72 h depending on growth rate). Hyphal growth was estimated by measuring the optical density at 595 nm using a microtitre plate reader (SpectraMax Pro M2; Molecular Devices). Each test was performed in quadruplicate.

[5] = system: Thielaviopsis basicola; experiment: Growth inhibition by NaD1 (microtitre OD595); assay type: cell-based
Text: as §1

[6] = system: Verticillium dahliae; experiment: Growth inhibition by NaD1 (microtitre OD595); assay type: cell-based
Text: as §1

[7] = system: Leptosphaeria maculans; experiment: Growth inhibition by NaD1 (microtitre OD595); assay type: cell-based
Text: as §1

## NaD1: plant defensin isolated from floral tissue of Nicotiana alata (SEQ ID NO:12) (RECKTESNTFPGICITKPPCRKACISEKFTDGHCSKILRRCLCTKPC; Nicotiana alata (NaD1))
[1]; even at very high concentrations of NaD1
  entry of 10 kDa FITC-dextran (23 Å) into NaD1-treated hyphae: excluded
[1]; same NaD1 concentration that led to SYTOX green uptake
  entry of 4 kDa FITC-dextran (14 Å) into NaD1-treated hyphae: entered hyphae
[2]
  protection from the pathological effects of Fov infection: significantly protected
[3]; NaD1 10 μM, 2 h, many, but not all, hyphae
  NaD1 in cytoplasm of treated hyphae, immunogold α-NaD1 labeling: heavily labeled
[3]; SDS-PAGE and immunoblotting of cytoplasmic contents
  time after which NaD1 uptake occurred: 20 min
[3]; immunoblotting, decreased slightly afterwards
  time until which NaD1 in the Fov cytoplasm increased: 60 min
[4]; 1 μM NaD1, A. nidulans
  growth inhibited: approximately 65%
[4]; 5 μM NaD1, A. nidulans
  growth inhibited: more than 80%
[4]; Aspergillus nidulans
  IC50: 800 nM
[5]; 1 μM NaD1, T. basicola
  growth inhibited: approximately 65%
[5]; 5 μM NaD1, T. basicola
  growth inhibited: more than 80%
[5]; Thielaviopsis basicola
  IC50: 800 nM
[6]; 1 μM NaD1, V. dahliae
  growth inhibited: approximately 65%
[6]; 5 μM NaD1, V. dahliae
  growth inhibited: more than 80%
[6]; Verticillium dahliae
  IC50: 750 nM
[7]; 1 μM NaD1, L. maculans
  growth retarded: 50%
[7]; 5 μM NaD1, L. maculans
  growth inhibited: more than 80%
[7]; Leptosphaeria maculans
  IC50: 800 nM
